Results published in ChEMBL document CHEMBL5500361, “Probing benzenesulfonamide-thiazolidinone hybrids as multitarget directed ligands for efficient control of type 2 diabetes mellitus through targeting the enzymes: α-glucosidase and carbonic anhydrase II” (Eur J Med Chem, 2024).

Columns and labels:
[1] = molecular target: Carbonic anhydrase 12 (Homo sapiens, UniProt O43570)
Description: Binding affinity to human carbonic anhydrase 12 assessed as inhibition constant incubated for 15 mins by phenol red based stopped-flow CO2 hydration assay

[2] = molecular target: T1, Carbonic anhydrase 2 (Homo sapiens, UniProt P00918)
Description: Binding affinity to human carbonic anhydrase 2 assessed as inhibition constant incubated for 15 mins by phenol red based stopped-flow CO2 hydration assay

[3] = molecular target: T1, Carbonic anhydrase 2; remark: listed apart in the source
Description: Binding affinity to human recombinant carbonic anhydrase 2 assessed as inhibition constant incubated for 15 mins by phenol red based stopped-flow CO2 hydration assay

[4] = molecular target: Carbonic anhydrase 9 (Homo sapiens, UniProt Q16790)
Description: Binding affinity to human carbonic anhydrase 9 assessed as inhibition constant incubated for 15 mins by phenol red based stopped-flow CO2 hydration assay

[5] = molecular target: Carbonic anhydrase 1 (Homo sapiens, UniProt P00915)
Carbonic anhydrase 1, sequence (P00915 whole entry): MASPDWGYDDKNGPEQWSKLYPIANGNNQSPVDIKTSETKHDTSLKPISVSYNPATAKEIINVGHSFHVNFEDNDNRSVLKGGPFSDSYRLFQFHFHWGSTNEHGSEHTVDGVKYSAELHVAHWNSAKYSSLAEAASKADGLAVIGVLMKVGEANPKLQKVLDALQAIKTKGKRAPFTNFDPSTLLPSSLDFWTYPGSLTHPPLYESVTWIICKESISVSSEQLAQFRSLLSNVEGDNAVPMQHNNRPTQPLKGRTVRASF
Description: Binding affinity to human carbonic anhydrase 1 assessed as inhibition constant incubated for 15 mins by phenol red based stopped-flow CO2 hydration assay

[6] = test system: MCF7; test: Antiproliferative activity against human MCF7 cells assessed as inhibition of cell growth under hypoxia condition by MTT colorimetric assay
[7] = test system: MCF7; test: Antiproliferative activity against human MCF7 cells assessed as inhibition of cell growth under normoxia condition by MTT colorimetric assay

Carbonic anhydrase 12, sequence (O43570 whole entry): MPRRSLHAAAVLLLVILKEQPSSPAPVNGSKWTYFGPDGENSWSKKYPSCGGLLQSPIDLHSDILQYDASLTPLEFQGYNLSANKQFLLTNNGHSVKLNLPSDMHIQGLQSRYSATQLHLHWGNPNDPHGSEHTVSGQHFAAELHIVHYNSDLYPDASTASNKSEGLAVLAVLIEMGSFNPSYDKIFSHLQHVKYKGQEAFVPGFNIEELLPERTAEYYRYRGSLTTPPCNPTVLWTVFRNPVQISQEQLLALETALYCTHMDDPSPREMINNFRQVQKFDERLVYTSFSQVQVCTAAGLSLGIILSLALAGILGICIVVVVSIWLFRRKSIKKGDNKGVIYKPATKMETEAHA

Compound	Ki [1] [nM]	Ki [2] [nM]	further results
CCN1C(=O)/C(=C\c2ccc(Cl)cc2)S/C1=N/c1ccc(S(N)(=O)=O)cc1	36.3	30.5	
COc1ccc(/C=C2/S/C(=N/c3ccc(S(N)(=O)=O)cc3)NC2=O)cc1	77.6	24.3	
COc1ccc(/C=C2/S/C(=N/c3ccc(S(N)(=O)=O)cc3)N(C)C2=O)cc1	66.6	54.6	
NS(=O)(=O)c1ccc(N2C(=O)CS/C2=N\C(=O)c2ccccc2)cc1			Ki [3]: 0.41 nM
NS(=O)(=O)c1ccc(/N=C2\NC(=O)/C(=C3\C(=O)Nc4ccccc43)S2)cc1	33.5	23	Ki [4]: 47 nM; Ki [5]: 631 nM
CCN1C(=O)/C(=C\c2ccc(OC)cc2)S/C1=N/c1ccc(S(N)(=O)=O)cc1	56.6		
NS(=O)(=O)c1ccc(/N=C2\NC(=O)/C(=C\c3ccc(Cl)cc3)S2)cc1		95.7	
CCN1C(=O)/C(=C\c2ccccc2)S/C1=N/c1ccc(S(N)(=O)=O)cc1	96.3	77.2	
NS(=O)(=O)c1ccc(/N=C2\NC(=O)/C(=C\c3ccc(F)cc3)S2)cc1		7	
CCN1C(=O)/C(=C2\C(=O)Nc3ccccc32)S/C1=N/c1ccc(S(N)(=O)=O)cc1	9.1	105	
CN1C(=O)/C(=C\c2ccc(Cl)cc2)S/C1=N/c1ccc(S(N)(=O)=O)cc1	48.8		
CN1C(=O)/C(=C\c2ccccc2)S/C1=N/c1ccc(S(N)(=O)=O)cc1	74.5	44.5	
CCN1C(=O)/C(=C\c2ccc(F)cc2)S/C1=N/c1ccc(S(N)(=O)=O)cc1	11	85	IC50 [6]: 34 µM; Ki [4]: 33.9 nM; IC50 [7]: 21.6 µM; Ki [5]: 4420 nM
CN1C(=O)/C(=C\c2ccc(F)cc2)S/C1=N/c1ccc(S(N)(=O)=O)cc1	37	30.7	
NS(=O)(=O)c1ccc(/N=C2\NC(=O)/C(=C\c3ccccc3)S2)cc1	120	90.5	
